Measurements from US9738605B2, “Hybrid compounds of curcumin and melatonin as neuroprotectants for neurodegenerative disorders” (VIRGINIA COMMONWEALTH UNIVERSITY, priority 2013, dated 2017).

Target: T1, Aβ42 (Homo sapiens, UniProt P05067)
T1 construct: purchased American Peptide, Inc. (Sunnyvale, Calif.)
Experiment: Thioflavin T assay of Aβ42 fibril formation
Type: biochemical
Conditions: up to 100 μM, 48 h, ThT
Experimental: Briefly, 1 μL of each compound solution in DMSO (0.01 μM to 100 μM) was added to corresponding wells in a 96-well plate. Each concentration was prepared in independent triplicates and a solvent control was included. To each well, 9 μL of 25 μM Aβ42 in PBS (pH 7.4) was added, and then plates were incubated in dark at room temperature for 48 h. Next, 200 μL of a 5 μM ThT in 50 mM glycine solution (pH 8.0) was added to each well.

T1 sequence (P05067 672-713 limits assumed): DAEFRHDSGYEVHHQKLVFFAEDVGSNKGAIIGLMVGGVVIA

COc1ccc2[nH]cc(CCNC(=O)CC(=O)CCc3ccc(O)cc3)c2c1 [Compound 7, 5-(4-hydroxy-phenyl)-3-oxo-pentanoic acid [2-(5-methoxy-1H-indol-3-yl)-ethyl]-amide]
inhibition of the formation of Aβ42 fibrils: no significant inhibition
